Results from US9382215B2, “Therapeutic methods and agents for treating myotonic dystrophy” (The Board of Trustees of the University of Illinois, priority 2012, dated 2016).

How the values were obtained:
CTG repeats = experiment: Binding to CTG repeats
Protocol: (§1) Isothermal titration calorimetry measurements were performed at 25° C. on a MicroCal VP-ITC (MicroCal, Inc., Northampton, Mass.). A standard experiment consisted of titrating 10 μL of a 500 μM ligand from a 250 μL syringe (rotating at 300 rpm) into a sample cell containing 1.42 mL of a 20 μM DNA/RNA solution. The duration of the injection was set to 24 s, and the delay between injections was 300 s. The initial delay prior to the first injection was 60 s. To derive the heat associated with each injection, the area under each isotherm (microcalories per second versus seconds) was determined by integration by the graphing program Origin 5.0 (MicroCal, Inc. Northampton, Mass.). […] In many cases, additional sites are not detected by Job plot analysis and likely represent low-affinity sites. […]
(§2) A cell sample (250 μL) of 0.2 μM a compound of interest (in 20 mM MOPS pH 7.0, 300 mM NaCl) was excited at 310 nm (excitation slit of 4 nm) and emission recorded between 470-530 nm (emission slit of 8 nm) monitoring the maximum at 495 nm. […] The sample was then allowed to equilibrate for 15 min and the fluorescence emission recorded. The decrease in fluorescence with increased DNA/RNA was monitored until the binding sites became saturated and the fluorescence change was no longer evident. […]

MBNL1-CUG interaction = biological target: T1, MBNL1-CUG interaction (Homo sapiens, UniProt Q9NR56); experiment: Electrophoretic mobility shift assay (EMSA) of inhibition of MBNL1-CUG interaction; format: biochemical
T1 construct: An expression vector for MBNL1N (1-272 aminoacids) was obtained from Maurice S. Swanson; hexahis; made in house
T1 sequence (Q9NR56 1-272): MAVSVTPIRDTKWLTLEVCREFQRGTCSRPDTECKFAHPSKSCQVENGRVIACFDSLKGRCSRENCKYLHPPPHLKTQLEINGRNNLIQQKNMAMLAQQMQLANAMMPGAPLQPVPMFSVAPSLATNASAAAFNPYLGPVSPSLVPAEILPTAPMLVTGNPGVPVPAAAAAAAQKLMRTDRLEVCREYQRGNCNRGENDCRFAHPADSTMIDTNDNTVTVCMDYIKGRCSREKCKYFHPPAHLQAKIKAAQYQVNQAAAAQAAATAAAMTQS
Protocol: (§3) RNA was labeled with [γ-^32P]ATP using T4 polynucleotide kinase (New England Biolabs). Labeled RNA (5 μL, 0.5 nM) was heated at 95° C. for 2 min and then placed on ice for 10 min and diluted to 125 μL in RNA storage buffer (66 mM NaCl, 6.7 mM MgCl2, and 27 mM Tris.HCl (pH 7.5). If required for the experiment, tRNA was added to the RNA solution to give a final concentration of approximately 8 μM. The protein (MBNL1N) was serially diluted in binding buffer (175 mM NaCl, 5 mM MgCl2, 20 mM Tris.HCl (pH 7.5), 1.25 mM BME, 12.5% glycerol, 2 mg/mL BSA, and 0.1 mg/mL heparin), and 5 μL of protein solution was added to 5 μL of RNA solution (Warf and Berglund, RNA, 2007, 13, 2238-2251). The reaction mixture was incubated at room temperature for 25 min and loaded onto a 6% polyacrylamide gel (80:1) at 4° C. The gels were run for 1 hour at 360V in 22.5 mM Tris-borate buffer (pH 8). Gels were visualized on a Molecular Dynamics Storm phosphorimager. The apparent Kd values were obtained by fitting fraction RNA bound versus protein concentration using the following equation: fraction bound=1/(1+(Kd/[P]T)). All binding measurements were performed with a greater than 10-fold excess of protein over RNA in each binding reaction used to determine the Kd so that [P] would be approximately equal to [P]total.
The inhibition of the MBNL1N-RNA complex was investigated using the above procedure except that the small molecule was added to the RNA-protein complex after 25 min of incubation. The reaction mixture was incubated for an additional 10-15 minutes at room temperature (˜23° C.). The inhibition assays were performed in the presence of 10% DMSO. To determine IC50 values, the free RNA versus small molecule concentration was fit to the equation: B=ΔB exp((−0.69/IC50)C)+Bf. B is the volume of the free RNA band in the gel, ΔB is the difference between the volumes of the free RNA bands at the lowest and highest concentrations of small molecule (Bi−Bf), C is the concentration of the small molecule, and IC50 is the concentration of small molecule at which B=(½ΔB)+Bf. […]

MBNL1-CUG foci = experiment: Confocal microscopy of MBNL1-CUG foci in HeLa cells transfected with GFP-MBNL1 and DMPK (CUG)960; format: cell-based; details: HeLa cells containing (CUG)960, confocal microscopy, preliminary results
Excerpt: In various embodiments, the compounds described herein can form MBNL1-CUG foci inside the nucleus for cells containing expanded CUG repeats.

mice = experiment: Tolerability in mice, intraperitoneal injection; format: in vivo; details: 100 mg/kg
Protocol: (§4) The compounds are found to be non-toxic among different cell types tested, including DM1 patient cells and 3T3 mouse fibroblasts. In one experiment, three mice each were evaluated at 5, 10, 20 50, and 100 mg/kg of compound 1, given by intraperitoneal injection.

[1] = Tolerability in mice, intraperitoneal injection; format: in vivo; details: mouse, in vivo, ip, mice, 5-100 mg/kg tested, read-out: maximum tolerated dose
Protocol: as §4

MBNL1N-(CUG)12 RNA = biological target: T2, MBNL1N-(CUG)12 RNA (Homo sapiens, UniProt Q9NR56); experiment: Inhibition of MBNL1N binding to (CUG)12 RNA in the presence of competitor tRNA; format: biochemical
T2 construct: An expression vector for MBNL1N (1-272 aminoacids) was obtained from Maurice S. Swanson; hexahis; made in house
T2 sequence (Q9NR56 1-272): T1 sequence (Q9NR56 1-272)
Protocol: as §3, with “[P]total. […]” for “[P]total.”

MBNL1N-(CUG)4 RNA = biological target: T3, MBNL1N-(CUG)4 RNA (Homo sapiens, UniProt Q9NR56); experiment: Inhibition of MBNL1N binding to (CUG)4 RNA in the presence of competitor tRNA; format: biochemical
T3 construct: An expression vector for MBNL1N (1-272 aminoacids) was obtained from Maurice S. Swanson; hexahis; made in house
T3 sequence (Q9NR56 1-272): T1 sequence (Q9NR56 1-272)
Protocol: as §3, with “[P]total. […]” for “[P]total.”

CUG repeats = experiment: Binding to CUG repeats
Protocol: as §1, §2

Water solubility = format: physicochemical
3T3 mouse fibroblast = experiment: Toxicity / cell viability in 3T3 mouse fibroblasts; format: cell-based

N=C(NCCCCNc1nc(N)nc(N)n1)c1ccc(C(=N)NCCCCNc2nc(N)nc(N)n2)cc1 [Compound 1, N^1,N^4-bis(4-((4,6-diamino-1,3,5-triazin-2-yl)amino)butyl)terephthalimidamide]
affinity for CTG repeats (CTG repeats): high nanomolar affinity
IC50 (MBNL1-CUG interaction; EMSA): 11 µM
Ki (MBNL1-CUG interaction; EMSA, read-out: inhibition constant (Ki) for MBNL1-CUG interaction): 0.177 µM
inhibitory ability in EMSA screen compared to other inhibitor compounds (such as compound 5) (MBNL1-CUG interaction; same concentration (100 μM)): significantly improved inhibitory ability
disruption of MBNL1-CUG foci in the nucleus (MBNL1-CUG foci): significant disruption of foci
mice exhibiting neurotoxicity (mice): two of three
MTD [1]: 50 mg/kg
Ki for inhibition of MBNL1N binding to (CUG)12 RNA (MBNL1N-(CUG)12 RNA): low micromolar
Ki for inhibition of MBNL1N binding to (CUG)4 RNA (MBNL1N-(CUG)4 RNA): low micromolar
affinity for CUG repeats (CUG repeats): high nanomolar affinity
water solubility (Water solubility): improved water solubility
toxicity towards mouse fibroblasts (3T3 mouse fibroblast): non-toxic
cell viability (3T3 mouse fibroblast; 100 μM, 3-day incubation): 100%
